Measurements as given in US20230020329A1, “Annelated 9-hydroxy-1,8-dioxo-1,3,4,8-tetrahydro-2H-pyrido[1,2-a]pyrazine-7-carboxamides as HIV integrase inhibitors, methods of preparation and application thereof” (priority 2019, published 2023).
pEC50: −log10 of the molar value. Where two headings read alike, the source gives them in different places.

Key:
[1] = tested on: HIV-1 (NL4.3 strain) carrying the GFP reporter gene (NL4.3-GFP); experiment: HIV-1 NL4.3-GFP infection of SupT1 cells; format: cell-based; conditions: Human immunodeficiency virus 1, SUP-T1, read-out: Inhibitory activity (EC50) of HIV-1 (NL4.3 strain) carrying the GFP reporter gene
Experimental: 6. Inhibitory Activity of HIV-1 (NL4.3 Strain) Carrying the GFP Reporter Gene (NL4.3-GFP) in the SuPT1 Cell Line.
The evaluation was done by RetroVirox Inc. (San Diego, Calif., USA). SupT1 cells were infected with the HIV NL4.3 strain carrying the green fluorescent protein gene (NL4.3-GFP). The virus sample was produced by transfection of 293T cells with proviral DNA. The sample was frozen 48 hours after transfection and stored until use. To enhance the efficiency of infection, a suspension of SupT1 cells was precipitated from the infectious mixture by centrifugation. Test substances were added to the cells immediately before adding the virus. After 2 hours of incubation, the infectious mixture was replaced with a fresh culture medium containing test samples. The effectiveness of the infection was determined after 45 hours by counting the percentage of fluorescent cells in comparison with uninfected cell cultures. The cytotoxicity of the test compounds was determined in parallel on the same, but not infected, SupT1 cell line using the XTT reagent. Serial tenfold dilutions of the samples (starting from 10 μM when determining antiviral activity or from 100 μM for determining cytotoxicity). As a negative control, 0.1% DMSO was used. The values of EC50 were calculated. The quality of the tests was determined using the following controls: signal-to-noise ratio, integrase inhibitor raltegravir (1 μM), and test reproducibility.

rat plasma proteins = experiment: Plasma protein binding by equilibrium dialysis, rat; format: in vitro ADME; conditions: for Binding class / Extraction / Permeability: rat; for Bound: rat plasma diluted to 50%, 37° C.; for Bound / Extraction / Permeability: 1 μM, 4 h; for Permeability: dialysis membrane
Experimental: (§1) To assess protein binding, pooled samples of blood plasma diluted with phosphate buffer up to 50% were used. The test was carried out in a teflon coated 48-well dialysis plate. Each well contained two separate chambers separated by a vertical semipermeable dialysis membrane with 8 kDa pores. A plasma sample with 1 μM of the test compound was placed into one of the chambers, and a buffer solution (pH=7.2) was placed in the other chamber. Over time, at 37° C. while rocking, passive diffusion of the unbound compound occurred and after 4 hours the equilibrium state between the chambers with plasma and the buffer solution was reached. The amount of free fraction was evaluated by HPLC-MS/MS following precipitation of the proteins by acetonitrile. Also, the study involved evaluation of stability of the substance during the 4-hour period and passive permeability through the dialysis membrane in the buffer by mass balance. Warfarin was used as the control compound. The results are presented in Table 4, from which it follows that the compounds of general formula 1.1 have a high degree of binding to human and rat plasma proteins.

human plasma proteins = experiment: Plasma protein binding by equilibrium dialysis, human; format: in vitro ADME; conditions: for Binding class / Extraction / Permeability: human; for Bound: human plasma diluted to 50%, 37° C.; for Bound / Extraction / Permeability: 1 μM, 4 h; for Permeability: dialysis membrane
Experimental: as §1

HIV-1 (IIIB strain) = experiment: Anti-HIV cytoprotection assay (XTT), HIV-1 IIIB in CEM-SS cells; format: cell-based; conditions: CEM-SS cell line, read-out: Inhibitory activity (EC50) against HIV-1 (IIIB strain)
Summary of the method: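 CEM-SS cells infected with a pre-titrated virus dose killing 85–95% of cells by day 6; protection from HIV-induced death read by XTT formazan. Compounds screened in triplicate at 30 and 10 nM, actives retested at 2 nM; AZT six-concentration curve on each plate as positive control.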

Compound | pEC50 [1] | Binding class (rat plasma proteins) | Bound (rat plasma proteins) [%] | Extraction (rat plasma proteins) [%] | Permeability (rat plasma proteins) [%] | Binding class (human plasma proteins) | Bound (human plasma proteins) [%] | Extraction (human plasma proteins) [%] | Permeability (human plasma proteins) [%] | pEC50 (HIV-1 (IIIB strain)) | pEC50 (HIV-1 (IIIB strain); Human immunodeficiency virus 1, IIIB, CEM-SS)
C[C@H]1CO[C@@H]2Cn3cc(C(=O)NCc4ccc(F)nc4F)c(=O)c(O)c3C(=O)N12 [Compound 1.1.19, (3S,11aR)-6-hydroxy-N-[(2,6-difluoropyridin-3-yl)methyl]-3-methyl-5,7-dioxo-2,3,5,7,11,11a-hexahydro[1,3]oxazolo[3,2-a]pyrido[1,2-d]pyrazine-8-carboxamide] | 8.72 | High | 98.9 | 94.5 | 83.8 | High | 99.0 | 95.0 | 84.0 | 9.62 | –
C[C@H]1CO[C@@H]2Cn3cc(C(=O)NCc4ncc(F)cc4F)c(=O)c(O)c3C(=O)N12 [Compound 1.1.17, (3S,11aR)-6-hydroxy-N-[(3,5-difluoropyridin-2-yl)methyl]-3-methyl-5,7-dioxo-2,3,5,7,11,11a-hexahydro[1,3]oxazolo[3,2-a]pyrido[1,2-d]pyrazine-8-carboxamide] | 8.82 | High | 99.9 | 108 | 90.9 | High | 98.8 | 94.6 | 84.8 | – | 9.62
